Data: patent US11420958B2, “Aryl and heteroaryl substituted indole compounds” (BRISTOL-MYERS SQUIBB COMPANY, priority 2017, dated 2022)

Key:
Format in all cases: cell-based
human TLR9 = human TLR9 (Homo sapiens (Human), UniProt Q9NR96); test: TLR9 inhibition reporter assay (HEK-Blue, SEAP); conditions: HEK-Blue cells overexpressing human TLR9, ODN2006 5 nM stimulation
Method in brief: (§1)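 HEK-Blue cells expressing human TLR7, TLR8 or TLR9 with NF-κB/AP-1-driven SEAP reporter; compounds 0.05 nM–50 μM, 30 min pre-treatment at room temperature. Stimulated with gardiquimod 7.5 μM (TLR7), R848 15.9 μM (TLR8) or ODN2006 5 nM (TLR9), 22 h at 37 °C; % inhibition of SEAP signal relative to agonist+DMSO and known-inhibitor wells.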

human TLR8 = human TLR8 (Homo sapiens (Human), UniProt Q9NR97); test: TLR8 inhibition reporter assay (HEK-Blue, SEAP); conditions: HEK-Blue cells overexpressing human TLR8, R848 15.9 μM stimulation
Method in brief: as §1

human TLR7 = human TLR7 (Homo sapiens (Human), UniProt Q9NYK1); test: TLR7 inhibition reporter assay (HEK-Blue, SEAP); conditions: HEK-Blue cells overexpressing human TLR7, gardiquimod 7.5 μM stimulation
Method in brief: as §1

human TLR7, sequence (Q9NYK1 27-1049): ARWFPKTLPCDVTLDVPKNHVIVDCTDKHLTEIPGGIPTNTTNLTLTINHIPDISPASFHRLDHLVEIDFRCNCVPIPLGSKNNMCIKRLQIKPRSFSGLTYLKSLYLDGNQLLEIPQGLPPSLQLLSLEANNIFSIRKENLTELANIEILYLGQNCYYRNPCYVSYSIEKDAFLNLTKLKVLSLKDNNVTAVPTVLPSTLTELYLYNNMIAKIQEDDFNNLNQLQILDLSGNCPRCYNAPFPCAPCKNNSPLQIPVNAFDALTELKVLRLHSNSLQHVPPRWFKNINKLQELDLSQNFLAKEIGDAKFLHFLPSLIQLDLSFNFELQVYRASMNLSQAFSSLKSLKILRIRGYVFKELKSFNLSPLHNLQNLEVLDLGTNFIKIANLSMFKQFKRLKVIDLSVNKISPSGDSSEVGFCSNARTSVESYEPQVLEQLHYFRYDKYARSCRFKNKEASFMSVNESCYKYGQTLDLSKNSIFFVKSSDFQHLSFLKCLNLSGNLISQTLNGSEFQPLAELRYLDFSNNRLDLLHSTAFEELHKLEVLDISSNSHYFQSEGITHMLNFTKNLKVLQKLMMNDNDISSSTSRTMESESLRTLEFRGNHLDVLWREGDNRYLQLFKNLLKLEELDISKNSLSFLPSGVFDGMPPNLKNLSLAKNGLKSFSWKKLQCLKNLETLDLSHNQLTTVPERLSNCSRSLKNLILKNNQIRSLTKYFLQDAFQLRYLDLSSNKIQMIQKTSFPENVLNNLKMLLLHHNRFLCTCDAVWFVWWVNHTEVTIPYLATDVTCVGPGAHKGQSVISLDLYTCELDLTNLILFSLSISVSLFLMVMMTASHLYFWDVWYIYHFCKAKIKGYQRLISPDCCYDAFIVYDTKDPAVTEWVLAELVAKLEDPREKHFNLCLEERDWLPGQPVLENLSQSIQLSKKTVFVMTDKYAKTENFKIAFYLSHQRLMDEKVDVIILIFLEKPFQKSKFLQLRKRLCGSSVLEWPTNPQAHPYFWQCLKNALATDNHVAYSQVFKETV
human TLR8, sequence (Q9NR97 27-1041): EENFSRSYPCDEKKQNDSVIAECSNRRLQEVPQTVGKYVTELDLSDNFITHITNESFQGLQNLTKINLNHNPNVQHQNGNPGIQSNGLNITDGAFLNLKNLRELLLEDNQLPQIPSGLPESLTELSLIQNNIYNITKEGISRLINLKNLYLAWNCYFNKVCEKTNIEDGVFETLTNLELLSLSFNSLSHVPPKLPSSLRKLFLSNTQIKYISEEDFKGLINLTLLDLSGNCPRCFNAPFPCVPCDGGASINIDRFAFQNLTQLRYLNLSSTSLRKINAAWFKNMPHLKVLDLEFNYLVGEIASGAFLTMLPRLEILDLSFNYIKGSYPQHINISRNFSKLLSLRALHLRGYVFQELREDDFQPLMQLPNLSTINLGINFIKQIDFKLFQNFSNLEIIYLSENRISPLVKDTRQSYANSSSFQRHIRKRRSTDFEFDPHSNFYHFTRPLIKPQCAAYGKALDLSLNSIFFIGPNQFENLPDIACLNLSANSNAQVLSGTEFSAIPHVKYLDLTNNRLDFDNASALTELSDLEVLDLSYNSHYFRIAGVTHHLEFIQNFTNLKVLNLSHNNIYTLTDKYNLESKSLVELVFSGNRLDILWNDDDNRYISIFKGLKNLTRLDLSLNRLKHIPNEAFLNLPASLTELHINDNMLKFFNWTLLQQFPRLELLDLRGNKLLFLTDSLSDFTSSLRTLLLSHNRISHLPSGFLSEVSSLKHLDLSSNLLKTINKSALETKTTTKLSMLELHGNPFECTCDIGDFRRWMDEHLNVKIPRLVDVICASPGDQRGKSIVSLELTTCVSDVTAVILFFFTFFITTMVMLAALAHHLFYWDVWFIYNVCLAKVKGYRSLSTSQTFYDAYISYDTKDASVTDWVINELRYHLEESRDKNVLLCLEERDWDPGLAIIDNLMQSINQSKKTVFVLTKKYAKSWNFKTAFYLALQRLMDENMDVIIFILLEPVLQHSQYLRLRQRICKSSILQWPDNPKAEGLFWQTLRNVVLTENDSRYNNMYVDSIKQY
human TLR9, sequence (Q9NR96 26-1032): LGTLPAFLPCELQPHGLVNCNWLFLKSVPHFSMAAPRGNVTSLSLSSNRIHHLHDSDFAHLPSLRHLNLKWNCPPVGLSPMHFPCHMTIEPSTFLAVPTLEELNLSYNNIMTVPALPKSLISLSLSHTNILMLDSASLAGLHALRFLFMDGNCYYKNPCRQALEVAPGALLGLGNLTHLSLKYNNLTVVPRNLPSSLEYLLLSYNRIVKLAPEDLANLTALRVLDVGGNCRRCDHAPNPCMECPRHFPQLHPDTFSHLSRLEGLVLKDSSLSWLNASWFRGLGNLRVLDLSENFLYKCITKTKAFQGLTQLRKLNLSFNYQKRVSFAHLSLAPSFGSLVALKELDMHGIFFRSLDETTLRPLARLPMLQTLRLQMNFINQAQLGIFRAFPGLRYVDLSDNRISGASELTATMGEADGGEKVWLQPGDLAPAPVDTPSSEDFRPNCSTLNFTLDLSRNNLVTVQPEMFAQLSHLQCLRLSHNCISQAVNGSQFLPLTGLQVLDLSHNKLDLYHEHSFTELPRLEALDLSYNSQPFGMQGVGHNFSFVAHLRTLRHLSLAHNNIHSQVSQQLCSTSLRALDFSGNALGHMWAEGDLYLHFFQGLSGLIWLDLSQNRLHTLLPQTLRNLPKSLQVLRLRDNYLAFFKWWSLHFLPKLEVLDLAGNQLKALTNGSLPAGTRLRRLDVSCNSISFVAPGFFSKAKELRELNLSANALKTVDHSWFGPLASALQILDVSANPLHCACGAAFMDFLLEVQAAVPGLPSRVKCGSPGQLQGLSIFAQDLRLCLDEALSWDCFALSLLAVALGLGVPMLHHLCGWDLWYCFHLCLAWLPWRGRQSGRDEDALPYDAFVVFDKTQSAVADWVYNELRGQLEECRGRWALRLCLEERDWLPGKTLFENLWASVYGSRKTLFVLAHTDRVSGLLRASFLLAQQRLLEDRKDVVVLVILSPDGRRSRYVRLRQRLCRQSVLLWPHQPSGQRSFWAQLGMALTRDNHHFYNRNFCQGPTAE

| Compound | IC50 (human TLR9) [µM] | IC50 (human TLR8) [µM] | IC50 (human TLR7) [µM] |
| --- | --- | --- | --- |
| Cc1cc(-c2[nH]c3ccc(-c4nc(C5CCNCC5)c[nH]4)cc3c2C(C)C)ccn1 [Example 189, 3-isopropyl-2-(2-methylpyridin-4-yl)-5-(4-(piperidin-4-yl)-1H-imidazol-2-yl)-1H-indole] | 0.921 | 0.043 | 0.175 |
| Cc1cc(-c2[nH]c3ccc(-c4nnc(C5CN6CCC5CC6)o4)cc3c2C(C)C)ccn1 (stereo not drawn) [Example 231, 2-(3-isopropyl-2-(2-methylpyridin-4-yl)-1H-indol-5-yl)-5-(quinuclidin-3-yl)-1,3,4-oxadiazole] | 0.895 | 0.0059 | 0.069 |
| COc1ccc(-c2[nH]c3ccc(-c4ccc(NCC5CCN(C)C5)cc4)cc3c2C(C)C)cc1OC (stereo not drawn) [Example 386, 4-(2-(3,4-dimethoxyphenyl)-3-isopropyl-1H-indol-5-yl)-N-((1-methylpyrrolidin-3-yl)methyl)aniline] | 3.71 | 0.0096 | 0.169 |
| CCc1c(-c2ccnc(C)c2)[nH]c2ccc(-c3noc(C4CCNC4)n3)cc12 (stereo not drawn) [Example 456, 3-(3-ethyl-2-(2-methylpyridin-4-yl)-1H-indol-5-yl)-5-(pyrrolidin-3-yl)-1,2,4-oxadiazole] | 0.593 | 0.018 | 0.078 |
| CCc1c(-c2ccc(OC)c(OC)c2)[nH]c2ccc(-c3noc(C4CCNCC4)n3)cc12 [Example 459, 3-(2-(3,4-dimethoxyphenyl)-3-ethyl-1H-indol-5-yl)-5-(piperidin-4-yl)-1,2,4-oxadiazole] | 2.18 | 0.019 | 0.306 |
| CC(C)c1c(-c2ccnc3[nH]ncc23)[nH]c2ccc(-c3cccc(CO)c3)cc12 [Example 414, (3-(3-isopropyl-2-(1H-pyrazolo[3,4-b]pyridin-4-yl)-1H-indol-5-yl)phenyl)methanol] | > 50 | 0.063 | 0.771 |
| COc1ccc(-c2[nH]c3ccc(-c4ncc[nH]4)cc3c2C(C)C)cc1OC [Example 165, 2-(3,4-dimethoxyphenyl)-5-(1H-imidazol-2-yl)-3-isopropyl-1H-indole] | 6.69 | 0.0073 | 0.093 |
| Cc1cc(-c2[nH]c3ccc(-c4ccc(N)nc4)cc3c2C(C)C)cc(C)n1 [Example 236, 5-(2-(2,6-dimethylpyridin-4-yl)-3-isopropyl-1H-indol-5-yl)pyridin-2-amine] | 0.655 | 0.0027 | 0.013 |
| CCc1c(-c2ccc(OC)c(OC)c2)[nH]c2ccc(-c3ccc(N4CCN(C)CC4)cc3)cc12 [Example 381, 2-(3,4-dimethoxyphenyl)-3-ethyl-5-(4-(4-methylpiperazin-1-yl)phenyl)-1H-indole] | 46.6 | 22.6 | 0.517 |
| Cc1cc(-c2[nH]c3ccc(-c4nnc(CC(C)N)o4)cc3c2C(C)C)ccn1 (stereo not drawn) [Example 259, 1-(5-(3-isopropyl-2-(2-methylpyridin-4-yl)-1H-indol-5-yl)-1,3,4-oxadiazol-2-yl)propan-2-amine] | 0.876 | 0.0055 | 0.026 |
| Cc1cc(-c2[nH]c3ccc(-c4ccn5ncnc5c4C)cc3c2C(C)C)cc(C)n1 [Example 355, 7-(2-(2,6-dimethylpyridin-4-yl)-3-isopropyl-1H-indol-5-yl)-8-methyl-[1,2,4]triazolo[1,5-a]pyridine] | 25.2 | 0.176 | 0.057 |
| CC(C)c1c(-c2ccnc3[nH]ncc23)[nH]c2ccc(-c3nnc(C(=O)NC4CCN(C(C)C)CC4)s3)cc12 [Example 203, 5-(3-isopropyl-2-(1H-pyrazolo[3,4-b]pyridin-4-yl)-1H-indol-5-yl)-N-(1-isopropylpiperidin-4-yl)-1,3,4-thiadiazole-2-carboxamide] | 0.926 | 0.0078 | 0.056 |
| Cc1cc(-c2[nH]c3ccc(-c4nc5c(s4)CN(C(=O)CN(C)C)CC5)cc3c2C(C)C)cc(C)n1 [Example 363, 2-(dimethylamino)-1-(2-(2-(2,6-dimethylpyridin-4-yl)-3-isopropyl-1H-indol-5-yl)-6,7-dihydrothiazolo[5,4-c]pyridin-5(4H)-yl)ethan-1-one] | 0.151 | 0.0023 | 0.0008 |
| Cc1cc(-c2[nH]c3ccc(-c4ccc(NC(=O)[C@@H]5CCNC5)nc4)cc3c2C(C)C)ccn1 [Example 209, (R)—N-(5-(3-isopropyl-2-(2-methylpyridin-4-yl)-1H-indol-5-yl)pyridin-2-yl)pyrrolidine-3-carboxamide] | 0.828 | 0.067 | 0.169 |
| COc1ccc(-c2[nH]c3ccc(-c4ccnc(C(=O)N[C@H]5CC[C@H](C(C)(C)O)CC5)c4)cc3c2C(C)C)cc1OC [Example 13, 4-(2-(3,4-dimethoxyphenyl)-3-isopropyl-1H-indol-5-yl)-N-((1r,4r)-4-(2-hydroxypropan-2-yl)cyclohexyl)picolinamide] | > 50 | 1.01 | 1.24 |
| COc1ccc(-c2[nH]c3ccc(-c4nnc(C(=O)N5CCCN(C)CC5)o4)cc3c2C(C)C)cc1OC [Example 93, (5-(2-(3,4-dimethoxyphenyl)-3-isopropyl-1H-indol-5-yl)-1,3,4-oxadiazol-2-yl)(4-methyl-1,4-diazepan-1-yl)methanone] | 2.02 | 0.015 | 0.086 |
| CC(=O)N1CCN(Cc2nnc(-c3ccc4[nH]c(-c5ccnc6[nH]ncc56)c(C(C)C)c4c3)o2)CC1 [Example 153, 1-(4-((5-(3-isopropyl-2-(1H-pyrazolo[3,4-b]pyridin-4-yl)-1H-indol-5-yl)-1,3,4-oxadiazol-2-yl)methyl)piperazin-1-yl)ethan-1-one] | > 50 | 0.138 | 1.57 |
| Cc1cc(-c2[nH]c3ccc(-c4nc(C(=O)NCC5CCCCN5)co4)cc3c2C(C)C)cc(C)n1 (stereo not drawn) [Example 287, 2-(2-(2,6-dimethylpyridin-4-yl)-3-isopropyl-1H-indol-5-yl)-N-(piperidin-2-ylmethyl)oxazole-4-carboxamide] | 0.399 | 0.0066 | 0.017 |
| COc1ccc(-c2[nH]c3ccc(-c4nnc(CN5CCCN(C(C)=O)CC5)o4)cc3c2C(C)C)cc1OC [Example 119, 1-(4-((5-(2-(3,4-dimethoxyphenyl)-3-isopropyl-1H-indol-5-yl)-1,3,4-oxadiazol-2-yl)methyl)-1,4-diazepan-1-yl)ethan-1-one] | 14.4 | 0.099 | 0.106 |
| Cc1cc(-c2[nH]c3ccc(-c4cc5c(s4)CN(C(=O)CN(C)C)CC5)cc3c2C(C)C)ccn1 [Example 305, 2-(dimethylamino)-1-(2-(3-isopropyl-2-(2-methylpyridin-4-yl)-1H-indol-5-yl)-4,7-dihydrothieno[2,3-c]pyridin-6(5H)-yl)ethan-1-one] | 4.11 | 0.013 | 0.021 |
| COc1ccc(-c2[nH]c3ccc(-c4nnc(C(=O)N5CCC(O)CC5)o4)cc3c2C(C)C)cc1OC [Example 91, (5-(2-(3,4-dimethoxyphenyl)-3-isopropyl-1H-indol-5-yl)-1,3,4-oxadiazol-2-yl)(4-hydroxypiperidin-1-yl)methanone] | > 50 | 0.111 | 0.348 |
| COc1ccc(-c2[nH]c3ccc(-c4ccc(C5=CC(C)(C)NC(C)(C)C5)cc4)cc3c2C(C)C)cc1OC [Example 377, 2-(3,4-dimethoxyphenyl)-3-isopropyl-5-(4-(2,2,6,6-tetramethyl-1,2,3,6-tetrahydropyridin-4-yl)phenyl)-1H-indole] | 4.77 | 0.34 | 0.9 |
| Cc1cc(-c2[nH]c3ccc(-c4nc(C(=O)NCCCN5CCCC5)co4)cc3c2C(C)C)cc(C)n1 [Example 284, 2-(2-(2,6-dimethylpyridin-4-yl)-3-isopropyl-1H-indol-5-yl)-N-(3-(pyrrolidin-1-yl)propyl)oxazole-4-carboxamide] | 0.563 | 0.0096 | 0.012 |
| Cc1cc(-c2[nH]c3ccc(-c4nnc(C(=O)NC5CCN(C(C)C)CC5)s4)cc3c2C(C)C)ccn1 [Example 135, 5-(3-isopropyl-2-(2-methylpyridin-4-yl)-1H-indol-5-yl)-N-(1-isopropylpiperidin-4-yl)-1,3,4-thiadiazole-2-carboxamide] | 1.39 | 0.0078 | 0.044 |
| CNC(=O)c1ccc(-c2ccc3[nH]c(-c4cc(C)nc(C)c4)c(C(C)C)c3c2)cn1 [Example 316, 5-(2-(2,6-dimethylpyridin-4-yl)-3-isopropyl-1H-indol-5-yl)-N-methylpicolinamide] | > 50 | 0.065 | 0.028 |
| CC(C)c1c(-c2ccnc3[nH]ncc23)[nH]c2ccc(-c3noc([C@@H]4CCCNC4)n3)cc12 [Example 462, (R)-3-(3-isopropyl-2-(1H-pyrazolo[3,4-b]pyridin-4-yl)-1H-indol-5-yl)-5-(piperidin-3-yl)-1,2,4-oxadiazole] | 1.9 | 0.0041 | 0.156 |
| Cc1cc(-c2[nH]c3ccc(-c4nc(C(=O)N5CC6CNCC6C5)co4)cc3c2C(C)C)ccn1 (stereo not drawn) [Example 172, (hexahydropyrrolo[3,4-c]pyrrol-2(1H)-yl)(2-(3-isopropyl-2-(2-methylpyridin-4-yl)-1H-indol-5-yl)oxazol-4-yl)methanone] | 2.15 | 0.0023 | 0.049 |
| Cc1cc(-c2[nH]c3ccc(-c4nnc(C(=O)N5CC6CNCC6C5)o4)cc3c2C(C)C)ccn1 (stereo not drawn) [Example 60, (hexahydropyrrolo[3,4-c]pyrrol-2(1H)-yl)(5-(3-isopropyl-2-(2-methylpyridin-4-yl)-1H-indol-5-yl)-1,3,4-oxadiazol-2-yl)methanone] | 0.283 | 0.006 | 0.194 |
